Source: article PMC2879651 (Bioanalysis, 2009)
Like-named read-outs stand apart in the source and are kept apart here.

Tests used:
[1] = fatal intoxication after ingestion of Ayahuasca preparation; cited from earlier work
[2] = format: in vivo, male FVB/N mice; settings: for Cmax / MRT: male, FVB/N, mouse, ip, 2 mg/kg; for AUC0→t (AUC0→60 min): 0-60 min
[3] = rats, 1 hour after bufotenine 30 mg/kg s.c.; cited from earlier work

| SMILES | concentration in heart blood of decedent [1] | Cmax ([2]; serum) | MRT ([2]; serum) | serum concentration at 60 min relative to Cmax ([2]; mice, 60 min after 5-MeO-DMT 2 mg/kg i.p.) | AUC0→t (AUC0→90 min) ([2]; mice, serum, after 5-MeO-DMT 2 mg/kg i.p., 0-90 min) | brain over blood ratio of drug concentration [3] | serum concentration at 90 min ([2]; mice, 90 min after 5-MeO-DMT 2 mg/kg i.p., metabolite) | systemic exposure (AUC) to bufotenine relative to that to 5-MeO-DMT ([2]; mice, after 5-MeO-DMT 2 mg/kg i.p.) | Tmax ([2]; mice, serum, after 5-MeO-DMT 2 mg/kg i.p., bufotenine as metabolite) | AUC0→t (AUC0→60 min) ([2]; mice, serum, after 5-MeO-DMT 2 mg/kg i.p., metabolite) | AUC0→t (AUC0→60 min) ([2]; mice, serum, after 5-MeO-DMT 2 mg/kg i.p., metabolite, listed as bufotenine) |
| --- | --- | --- | --- | --- | --- | --- | --- | --- | --- | --- | --- |
| COc1ccc2[nH]cc(CCN(C)C)c2c1 [5-MeO-DMT, 5-Methoxy-N,N-dimethyltryptamine, reference compound] | 1880 ng/mL | 298 ± 29 ng/mL | 17.6 min | 4.4% | 6,000 ± 1,240 µg·min/L | – | – | – | – | – | – |
| CN(C)CCc1c[nH]c2ccc(O)cc12 [Bufotenine, bufotenine] | – | 10.6 ± 2.3 ng/mL | 24.3 min | – | – | 1/15 | below the LLOQ | about 1/14 | 13.3 ± 5.8 min | 388 ± 82 µg·min/L | 388 µg·min/L |
